Publication PMC11579512, “Deoxybouvardin-glucoside induces apoptosis in non-small cell lung cancer cells by targeting EGFR/MET and AKT signaling pathway” (EXCLI Journal, 2024)
Like-named read-outs stand apart in the source and are kept apart here.

Key:
HCC827GR cells [1] = assay: MTT viability with Z-VAD-FMK, HCC827GR; type: cell-based, human; conditions: Z-VAD-FMK 12 µM, 3 h; DBG 48 h
Method: (§1) All culture media were supplemented with FBS (10 %) and P/S (1 %), and the cells were grown at 37 °C in 5 % CO2.
(§2) The cells were treated with MTT and incubated for 2 h. The supernatants were removed, and the remaining formazan crystals were dissolved in DMSO before absorbance measurement at 570 nm using a Multiscan GO spectrophotometer (Thermo Fisher Scientific, Vantaa, Finland).

HCC827 cells [2] = assay: MTT viability with Z-VAD-FMK, HCC827; type: cell-based, human
Method: as §1, §2

p-EGFR = assay: Immunoblot p-EGFR with NAC pretreatment, HCC827 and HCC827GR cells; type: cell-based, human; conditions: NAC 4 mM; for p-EGFR protein Ratio: control = 1.00
Method: (§3) HaCaT cells were grown in DMEM, whereas HCC827 and HCC827GR cells were grown in RPMI 1640. All culture media were supplemented with FBS (10 %) and P/S (1 %), and the cells were grown at 37 °C in 5 % CO2.
(§4) Cells were lysed in RIPA buffer, and protein concentration was determined using a Bio-Rad DC Protein Assay kit (Bio-Rad, Hercules, CA, USA). Protein samples from the cell lysates were resolved by sodium dodecyl sulfate-polyacrylamide gel electrophoresis and then transferred onto polyvinylidene fluoride membranes. The membranes were blocked with 3 % or 5 % skim milk and then incubated at 4 °C overnight with the indicated primary antibodies, followed by the corresponding horseradish peroxidase-conjugated secondary antibodies at RT for 2 h. Protein bands were visualized using western blotting luminol reagent solution and ImageQuant LAS 500 (GE Healthcare, Uppsala, Sweden). The density of the bands was quantified using ImageJ software (NIH, Bethesda, MD, USA).

p-AKT = assay: Immunoblot p-AKT with NAC pretreatment, HCC827 and HCC827GR cells; type: cell-based, human; conditions: NAC 4 mM; for p-AKT protein Ratio: control = 1.00
Method: as §3, §4

PARP = assay: Immunoblot PARP with NAC pretreatment, HCC827 and HCC827GR cells; type: cell-based, human; conditions: for PARP protein/actin / PARP protein Ratio: NAC 4 mM; for PARP protein Ratio: control = 1.00
Method: as §3, §4

HCC827GR cells [3] = assay: MTT viability after NAC pretreatment, HCC827GR; type: cell-based, human; conditions: HCC827GR, NAC 4 mM
Method: as §1, §2

caspase-3 = assay: Immunoblot caspase-3 with NAC pretreatment, HCC827 and HCC827GR cells; type: cell-based, human; conditions: for caspase3 protein/actin / caspase3 protein Ratio: NAC 4 mM; for caspase3 protein Ratio: control = 1.00
Method: as §3, §4

HCC827 cells [4] = assay: MTT viability after NAC pretreatment, HCC827; type: cell-based, human; conditions: HCC827, NAC 4 mM
Method: as §1, §2

p-MET = assay: Immunoblot p-MET with NAC pretreatment, HCC827 and HCC827GR cells; type: cell-based, human; conditions: NAC 4 mM; for p-MET protein Ratio: control = 1.00
Method: as §3, §4

HCC827GR cells [5] = assay: Soft agar anchorage-independent growth, HCC827GR; type: cell-based, human; conditions: 2 weeks; for colony number, Control % / colony size, Control %: GEF 1 μM, SAV 2 nM or both
Method: (§5) The anchorage-independent cell growth assay was performed in 6-well plates with dual agar layers containing 0.6 % agar (lower layer) and 0.3 % agar (upper layer) supplemented with BME, 2 mM L-glutamine, 5 μg/ml gentamicin, and 10 % FBS. After 2 weeks of incubation, the number of colonies was assessed using a microscope (Leica, Wetzlar, Germany), and the mean colony area was analyzed using i-Solution ^TM software (Vancouver, BC, Canada).

HCC827 cells [6] = assay: Soft agar anchorage-independent growth, HCC827; type: cell-based, human; conditions: 2 weeks; GEF 1 μM, SAV 2 nM or both
Method: as §5

HCC827GR cells [7] = conditions: GEF 1 μM, SAV 2 nM or both
Method: as §1, §2

HCC827 cells [8] = conditions: GEF 1 μM, SAV 2 nM or both
Method: as §1, §2

HaCaT cells = conditions: GEF 1 μM, SAV 2 nM or both
Method: as §1, §2

[9] = NAC 4 mM pretreatment, then DBG

In the case of “Z-Val-Ala-Asp-(OMe)-fluoromethyl ketone [Z-VAD-FMK]”, the “DBG-mediated inhibition of viability with Z-VAD-FMK” value (HCC827GR cells [1]) is reported as “significantly recovered”, the “DBG-mediated inhibition of viability with Z-VAD-FMK” value (HCC827 cells [2]; Z-VAD-FMK 12 µM, 3 h, DBG 48 h) is reported as “significantly recovered” and the “DBG-induced apoptosis with Z-VAD-FMK” value (HCC827 cells [2]; Z-VAD-FMK pretreatment, cell line not specified (NSCLC cells)) is reported as “prevented the DBG-induced apoptosis”.
With `CC(=O)N[C@@H](CS)C(=O)O` [NAC, N-acetyl-L-cysteine, reference compound] the p-EGFR protein/actin (p-EGFR; HCC827, control 0.90) was 0.68, the “p-EGFR protein Ratio” value (p-EGFR; HCC827) was 0.76 and the p-EGFR protein/actin (p-EGFR; HCC827GR, control 0.93) was 0.93. For the same compound, the “p-EGFR protein Ratio” value (p-EGFR; HCC827GR) was 1.00, the p-AKT protein/actin (p-AKT; HCC827, control 1.00) was 0.79 and the “p-AKT protein Ratio” value (p-AKT; HCC827) was 0.79. For the same compound, the p-AKT protein/actin (p-AKT; HCC827GR, control 1.04) was 0.95, the “p-AKT protein Ratio” value (p-AKT; HCC827GR) was 0.92 and the PARP protein/actin (PARP; HCC827, control 0.96) was 1.00. For the same compound, the “PARP protein Ratio” value (PARP; HCC827) was 1.04, the PARP protein/actin (PARP; HCC827GR, control 0.99) was 1.32 and the “PARP protein Ratio” value (PARP; HCC827GR) was 1.33. For the same compound, the “cleaved PARP level” value (PARP; [9]) was “significantly prevented the increase”, the “cell viability (relative to untreated = 100.00)” value (HCC827GR cells [3]; mean of 3) was 99.78 and the “cell viability (relative to untreated = 100.00)” value (HCC827GR cells [3]; replicate 1) was 99.39. The “cell viability (relative to untreated = 100.00)” value (HCC827GR cells [3]; replicate 2) was 100.59, the “cell viability (relative to untreated = 100.00)” value (HCC827GR cells [3]; replicate 3) was 99.36 and the caspase3 protein/actin (caspase-3; HCC827, control 0.39) was 0.48. For the same compound, the “caspase3 protein Ratio” value (caspase-3; HCC827) was 1.23, the caspase3 protein/actin (caspase-3; HCC827GR, control 0.59) was 0.90 and the “caspase3 protein Ratio” value (caspase-3; HCC827GR) was 1.54. The “cleaved caspase-3 level” value (caspase-3; [9]) was “significantly prevented the increase”, the “cell viability (relative to untreated = 100.00)” value (HCC827 cells [4]; mean of 3) was 104.34 and the “cell viability (relative to untreated = 100.00)” value (HCC827 cells [4]; replicate 1) was 105.47. The “cell viability (relative to untreated = 100.00)” value (HCC827 cells [4]; replicate 2) was 103.68, the “cell viability (relative to untreated = 100.00)” value (HCC827 cells [4]; replicate 3) was 103.89 and the p-MET protein/actin (p-MET; HCC827, control 1.17) was 0.89. The “p-MET protein Ratio” value (p-MET; HCC827) was 0.76, the p-MET protein/actin (p-MET; HCC827GR, control 1.14) was 1.03 and the “p-MET protein Ratio” value (p-MET; HCC827GR) was 0.91.
With `C[C@@H](c1ccc2nccn2c1)n1nnc2ncc(-c3cnn(C)c3)nc21` [SAV, savolitinib, reference compound] the “colony number, Control %” value (HCC827GR cells [5]) was 90.34%, the “colony size, Control %” value (HCC827GR cells [5]) was 125.91% and the “colony formation, in words” value (HCC827GR cells [5]; SAV 2 nM) was “did not significantly alter the colony size and count”. The “colony formation, in words” value (HCC827 cells [6]) was “did not significantly alter the colony size and count”, the “colony size, Control %” value (HCC827 cells [6]) was 94.26% and the cell viability (HCC827GR cells [7]; 24 h, mean, n=3) was 97.44%. It also gave a cell viability (HCC827GR cells [7]; 24 h, replicate 1) of 102.35%, a cell viability (HCC827GR cells [7]; 24 h, replicate 2) of 94.96% and a cell viability (HCC827GR cells [7]; 24 h, replicate 3) of 95.02%. For the same compound, the cell viability (HCC827GR cells [7]; 48 h, mean, n=3) was 94.70%, the cell viability (HCC827GR cells [7]; 48 h, replicate 1) was 91.23% and the cell viability (HCC827GR cells [7]; 48 h, replicate 2) was 97.86%. The cell viability (HCC827GR cells [7]; 48 h, replicate 3) was 95.02%, the cell viability (HCC827 cells [8]; 24 h, mean, n=3) was 95.55% and the cell viability (HCC827 cells [8]; 24 h, replicate 1) was 94.16%. For the same compound, the cell viability (HCC827 cells [8]; 24 h, replicate 2) was 96.61%, the cell viability (HCC827 cells [8]; 24 h, replicate 3) was 95.89% and the cell viability (HCC827 cells [8]; 48 h, mean, n=3) was 94.28%. For the same compound, the cell viability (HCC827 cells [8]; 48 h, replicate 1) was 94.71%, the cell viability (HCC827 cells [8]; 48 h, replicate 2) was 94.13% and the cell viability (HCC827 cells [8]; 48 h, replicate 3) was 94.00%. For the same compound, the cell viability (HaCaT cells; 24 h, mean, n=3) was 98.31%, the cell viability (HaCaT cells; 24 h, replicate 1) was 97.97% and the cell viability (HaCaT cells; 24 h, replicate 2) was 99.14%. For the same compound, the cell viability (HaCaT cells; 24 h, replicate 3) was 97.82%, the cell viability (HaCaT cells; 48 h, mean, n=3) was 95.26% and the cell viability (HaCaT cells; 48 h, replicate 1) was 95.75%. The cell viability (HaCaT cells; 48 h, replicate 2) was 95.82% and the cell viability (HaCaT cells; 48 h, replicate 3) was 94.21%.
For `COc1cc2ncnc(Nc3ccc(F)c(Cl)c3)c2cc1OCCCN1CCOCC1` [GEF, gefitinib, reference compound], the “colony number, Control %” value (HCC827GR cells [5]) was 84.14%, the “colony size, Control %” value (HCC827GR cells [5]) was 98.13% and the cell viability (HCC827GR cells [7]; 24 h, mean, n=3) was 102.64%. It also gave a cell viability (HCC827GR cells [7]; 24 h, replicate 1) of 103.39%, a cell viability (HCC827GR cells [7]; 24 h, replicate 2) of 100.47% and a cell viability (HCC827GR cells [7]; 24 h, replicate 3) of 104.06%. It also gave a cell viability (HCC827GR cells [7]; 48 h, mean, n=3) of 96.35%, a cell viability (HCC827GR cells [7]; 48 h, replicate 1) of 98.10% and a cell viability (HCC827GR cells [7]; 48 h, replicate 2) of 91.57%. For the same compound, the cell viability (HCC827GR cells [7]; 48 h, replicate 3) was 99.38%, the cell viability (HaCaT cells; 24 h, mean, n=3) was 65.33% and the cell viability (HaCaT cells; 24 h, replicate 1) was 65.07%. For the same compound, the cell viability (HaCaT cells; 24 h, replicate 2) was 64.14%, the cell viability (HaCaT cells; 24 h, replicate 3) was 66.80% and the cell viability (HaCaT cells; 48 h, mean, n=3) was 39.87%. It also gave a cell viability (HaCaT cells; 48 h, replicate 1) of 39.75%, a cell viability (HaCaT cells; 48 h, replicate 2) of 40.25% and a cell viability (HaCaT cells; 48 h, replicate 3) of 39.62%.
